According to BindingDB's records for doi:10.1016/j.bioorg.2015.05.009 (Peking University, 2015):

target: Glycogen synthase kinase-3 beta (Homo sapiens, UniProt P49841); assay: Kinase-Glo Luminescent Kinase Assay; settings: pH 7.4
Procedure: Briefly, recombinant human GSK3β (1 µM, 10 µL) was mixed with 10 µL of GSK3β substrate ([…]pSEDEEE, 100 µM), 19 µL of 2.5 × kinase buffer (50 mM Tris-HCl, pH 7.4, 25 mM MgCl2), 10 µL of 10 µM ATP, 1 µL of the indicated amount of chemicals in DMSO to a final volume of 50 µL. Control reaction without kinase was set up. The mixtures were incubated at 30 °C for 40 min. The enzymatic reaction was stopped with 50 µL of Kinase-Glo reagent. Glow-type luminescence was recorded after 10 min.

Chain of Glycogen synthase kinase-3 beta (P49841 whole entry): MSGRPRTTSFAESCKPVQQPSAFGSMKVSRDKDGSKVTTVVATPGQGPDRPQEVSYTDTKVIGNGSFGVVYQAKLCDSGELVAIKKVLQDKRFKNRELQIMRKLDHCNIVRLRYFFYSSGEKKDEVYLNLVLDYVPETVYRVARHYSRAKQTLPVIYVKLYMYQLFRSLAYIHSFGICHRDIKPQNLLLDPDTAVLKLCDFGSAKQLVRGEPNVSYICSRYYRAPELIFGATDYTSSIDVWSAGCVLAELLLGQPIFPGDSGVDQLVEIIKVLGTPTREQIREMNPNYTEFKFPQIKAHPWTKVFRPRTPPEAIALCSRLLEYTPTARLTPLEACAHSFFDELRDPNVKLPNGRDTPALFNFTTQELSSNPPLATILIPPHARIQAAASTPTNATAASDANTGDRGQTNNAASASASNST

Compound	IC50 [nM]
COc1cc2c(CNC3CCN(S(=O)(=O)c4cccc5cccnc45)CC3)cc3c(c2cc1OC)C(=O)NC3=O [7,8-dimethoxy-5-((1-(quinolin-8-ylsulfonyl)piperidin-4-ylamino)methyl)-1H-benzo[e]isoindole-1,3(2H)-dione (8h)]	1530
COc1cc2c(CNC3CCN(S(=O)(=O)c4ccc(C(F)(F)F)cc4)CC3)cc3c(c2cc1OC)C(=O)NC3=O [7,8-dimethoxy-5-((1-(4-(trifluoromethyl)phenylsulfonyl)piperidin-4-ylamino)methyl)-1Hbenzo[e]isoindole-1,3 (2H)-dione (8e)]	530
COc1cc2c(CNC3CCN(S(=O)(=O)c4ccccc4[N+](=O)[O-])CC3)cc3c(c2cc1OC)C(=O)NC3=O [7,8-dimethoxy-5-((1-(2-nitrophenylsulfonyl)piperidin-4-ylamino)methyl)-1H-benzo[e]isoindole-1,3(2H)-dione (8f)]	530
COc1ccc(S(=O)(=O)N2CCC(NCc3cc4c(c5cc(OC)c(OC)cc35)C(=O)NC4=O)CC2)cc1 [7,8-dimethoxy-5-((1-(4-methoxyphenylsulfonyl)piperidin-4-ylamino)methyl)-1H-benzo[e]isoindole-1,3(2H)-dione (8b)]	2610
COc1cc2c(CNC3CCN(S(=O)(=O)c4cccs4)CC3)cc3c(c2cc1OC)C(=O)NC3=O [7,8-dimethoxy-5-((1-(thiophen-2-ylsulfonyl)piperidin-4-ylamino)methyl)-1H-benzo[e]isoindole-1,3(2H)-dione (8i)]	540
COc1cc2c(CNC3CCN(S(=O)(=O)c4ccc([N+](=O)[O-])cc4)CC3)cc3c(c2cc1OC)C(=O)NC3=O [7,8-dimethoxy-5-((1-(4-nitrophenylsulfonyl)piperidin-4-ylamino)methyl)-1H-benzo[e]isoindole-1,3(2H)-dione (8c)]	310
COc1cc2c(CNC3CCN(S(=O)(=O)c4ccc(C)cc4)CC3)cc3c(c2cc1OC)C(=O)NC3=O [7,8-dimethoxy-5-({[1-(4-methylbenzenesulfonyl)piperidin-4-yl]amino}methyl)-1H,2H,3H-benzo[e]isoindole-1,3-dione (8a)]	3730
COc1cc2c(CNC3CCN(S(C)(=O)=O)CC3)cc3c(c2cc1OC)C(=O)NC3=O [7,8-dimethoxy-5-((1-(methylsulfonyl)piperidin-4-ylamino)methyl)-1H-benzo[e]isoindole-1,3(2H)-dione (8d)]	360
COc1cc2c(CNC3CCN(S(=O)(=O)c4ccccc4)CC3)cc3c(c2cc1OC)C(=O)NC3=O [7,8-dimethoxy-5-((1-(phenylsulfonyl)piperidin-4-ylamino)methyl)-1H-benzo[e]isoindole-1,3(2H)-dione (8g)]	1030
COc1cc2c(C)cc3c(c2cc1OC)C(=O)NC3=O [7,8-Dimethoxy-5-methyl-1H-benzo[e]isoindole-1,3(2H)-dione]	1010
